# In patent US7842671B1, “Peptidomimetic inhibitors of STAT activity and uses thereof” (University of South Florida, priority 2003, dated 2010):
# Read-outs that look alike come from different tables or passages of the source. Square brackets hold non-standard residues; d marks the D form. Ends that are not written are not given here. Peptide text beside a SMILES is read from it. * marks the point of attachment. pY = N[CH](Cc1ccc(OP(=O)(O)O)cc1)C(=O)O; Nicotinoyl = O=C(c1cccnc1)*; 3Abz = Nc1cccc(C(=O)O)c1; Isobutyryl = CC(C)C(=O)*; 2Abz = Nc1ccccc1C(=O)O
# Assays:
# Stat3 [1] = molecular target: T1, Stat3 (Mus musculus, UniProt P42227); experiment: EMSA of Stat3 DNA-binding activity in nuclear extracts (hSIE probe); format: biochemical; set-up: nuclear extracts (prepared from epidermal growth factor (EGF)-stimulated fibroblasts); endogenous in cells; host or cells: NIH3T3 fibroblasts stimulated with EGF; conditions: for effect on Stat3 DNA-binding activity in vitro (in words): nuclear extracts; for selectivity among Stat3, Stat1 and Stat5 (in words): EMSA IC50 comparison
# T1 sequence (P42227 whole entry): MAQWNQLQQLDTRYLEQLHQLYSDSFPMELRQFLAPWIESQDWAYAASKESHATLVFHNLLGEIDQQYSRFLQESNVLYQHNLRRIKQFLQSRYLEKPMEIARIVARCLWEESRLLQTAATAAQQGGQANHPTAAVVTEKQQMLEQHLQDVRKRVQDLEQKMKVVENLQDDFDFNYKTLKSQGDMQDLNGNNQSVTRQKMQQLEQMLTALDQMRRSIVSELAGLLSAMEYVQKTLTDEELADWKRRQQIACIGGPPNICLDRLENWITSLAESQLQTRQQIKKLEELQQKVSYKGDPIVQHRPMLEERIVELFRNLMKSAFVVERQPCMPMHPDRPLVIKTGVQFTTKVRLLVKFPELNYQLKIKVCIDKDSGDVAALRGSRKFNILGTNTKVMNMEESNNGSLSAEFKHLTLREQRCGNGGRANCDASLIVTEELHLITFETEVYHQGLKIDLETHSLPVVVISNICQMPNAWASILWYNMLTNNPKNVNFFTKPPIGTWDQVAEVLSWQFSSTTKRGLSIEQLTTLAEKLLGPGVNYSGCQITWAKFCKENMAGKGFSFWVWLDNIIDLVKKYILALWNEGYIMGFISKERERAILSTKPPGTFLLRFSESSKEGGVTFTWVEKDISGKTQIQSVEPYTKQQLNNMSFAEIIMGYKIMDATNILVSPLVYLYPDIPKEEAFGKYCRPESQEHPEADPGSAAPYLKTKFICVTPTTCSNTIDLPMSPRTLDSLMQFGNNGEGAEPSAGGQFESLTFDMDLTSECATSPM
# Experimental: (§1) Nuclear extract preparation and gel shift assays. Nuclear extracts were prepared from cell lines and used for electrophoretic mobility shift assay (EMSA) as previously described (Garcia, R. et al. (1997); Yu, C. L. et al. (1995); Turkson, J. et al. (1998)). In some cases, cells were pre-treated with peptidomimetics for the indicated times (12-48 h) prior to harvesting for nuclear extract preparation. In other studies, nuclear extracts were pre-incubated with peptidomimetics for 30 min at room temperature prior to incubation with radiolabeled probe. The ^32P-radiolabeled oligonucleotide probes used are hSIE (high affinity sis-inducible element, m67 variant, 5′-[…]-3′) (SEQ ID NO. 3) that binds both Stat1 and Stat3 (Garcia, R. et al. (1997); Wagner B. J. et al. (1990)) and MGFe (mammary gland factor element from the bovine β-casein gene promoter, 5′-[…]-3′) (SEQ ID NO. 4) that binds Stat1 and Stat5 (Gouilleux, F. et al. (1995); Seidel, H. M. et al. (1995)).
# (§2) Peptidomimetics of the invention can be prepared by replacing prolyl or alanyl residue at the peptide bond that is N-terminal to the phosphotyrosine (Y*) of a peptide such as PY*L or AY*L with an organic substituent such as an optionally substituted aryl or heteroaryl group. The activities of STATs were measured in nuclear extracts (prepared from epidermal growth factor (EGF)-stimulated fibroblasts) as DNA-bound protein complexes by electrophoretic mobility shift assay (EMSA).
# From densitometric analysis of band intensities, the IC50 values (concentration of peptidomimetic at which DNA-binding activity is reduced by 50%), which are reported in Table 3, were determined.
# Stat5:Stat5 = experiment: EMSA of Stat5:Stat5 DNA-binding in nuclear extracts; format: biochemical, mouse; conditions: nuclear extracts pre-incubated 30 min, mean and SD of at least 3 assays, read-out: IC50 values against STAT Dimers, Stat5:Stat5
# Experimental: as §1
# as §2, with “(EMSA). STAT-DNA complexes detected include Stat3:Stat3 homodimers (upper band), Stat1:Stat3 heterodimers (intermediate band) and Stat1:Stat1 homodimers (lower band) (FIG. 1A) when a ^32P-labeled hSIE oligonucleotide probe is used, or Stat5:Stat5 (upper band) and Stat1:Stat1 dimers (lower band) (FIG. 1B) when ^32P-labeled MGFe is used as a probe.” for “(EMSA).”
# Stat1:Stat1 = molecular target: T2, Stat1:Stat1 (Mus musculus, UniProt P42225); experiment: EMSA of Stat1:Stat1 DNA-binding in nuclear extracts; format: biochemical; conditions: nuclear extracts pre-incubated 30 min, EMSA; mean and SD of at least 3 assays; read-out: IC50 values against STAT Dimers, Stat1:Stat1
# T2 construct: nuclear extracts (prepared from epidermal growth factor (EGF)-stimulated fibroblasts); endogenous in cells; host or cells: NIH3T3 fibroblasts stimulated with EGF
# T2 sequence (P42225 1-749): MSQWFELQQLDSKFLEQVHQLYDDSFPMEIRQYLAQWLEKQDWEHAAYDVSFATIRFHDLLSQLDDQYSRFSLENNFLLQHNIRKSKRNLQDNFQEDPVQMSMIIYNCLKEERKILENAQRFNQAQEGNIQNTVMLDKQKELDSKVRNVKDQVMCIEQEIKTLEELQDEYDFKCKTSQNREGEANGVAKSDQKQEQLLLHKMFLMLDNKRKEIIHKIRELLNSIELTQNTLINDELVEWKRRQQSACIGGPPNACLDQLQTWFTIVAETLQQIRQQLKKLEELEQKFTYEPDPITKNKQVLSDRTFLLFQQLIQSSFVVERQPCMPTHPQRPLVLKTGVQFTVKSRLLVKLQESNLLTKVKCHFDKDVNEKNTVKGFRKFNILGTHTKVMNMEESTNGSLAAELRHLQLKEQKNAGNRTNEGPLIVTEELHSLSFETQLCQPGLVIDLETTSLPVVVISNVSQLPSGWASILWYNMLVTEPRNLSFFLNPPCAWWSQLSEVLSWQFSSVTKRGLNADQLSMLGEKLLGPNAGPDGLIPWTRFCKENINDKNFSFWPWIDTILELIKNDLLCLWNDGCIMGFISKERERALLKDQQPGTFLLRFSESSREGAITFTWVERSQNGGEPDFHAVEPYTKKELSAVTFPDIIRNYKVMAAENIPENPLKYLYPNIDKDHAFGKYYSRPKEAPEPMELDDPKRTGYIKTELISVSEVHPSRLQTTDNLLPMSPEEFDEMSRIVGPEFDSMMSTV
# Experimental: as §1
# as §2, with “(EMSA). STAT-DNA complexes detected include Stat3:Stat3 homodimers (upper band), Stat1:Stat3 heterodimers (intermediate band) and Stat1:Stat1 homodimers (lower band) (FIG. 1A) when a ^32P-labeled hSIE oligonucleotide probe is used, or Stat5:Stat5 (upper band) and Stat1:Stat1 dimers (lower band) (FIG. 1B) when ^32P-labeled MGFe is used as a probe.” for “(EMSA).”
# Stat1:Stat3 = molecular target: T3, Stat1:Stat3 (Mus musculus, UniProt P42227); experiment: EMSA of Stat1:Stat3 heterodimer DNA-binding in nuclear extracts (hSIE probe); format: biochemical; conditions: nuclear extracts pre-incubated 30 min, mean and SD of at least 3 assays, read-out: IC50 values against STAT Dimers, Stat1:Stat3
# T3 construct: nuclear extracts (prepared from epidermal growth factor (EGF)-stimulated fibroblasts); endogenous in cells; host or cells: NIH3T3 fibroblasts stimulated with EGF
# T3 sequence (P42227 whole entry): as the sequence (P42227 whole entry) above
# Experimental: as §1, §2
# [2] = molecular target: Stat3:Stat3 homodimers (activated Stat3 in nuclear extracts of EGF-stimulated NIH3T3 fibroblasts) (mouse) (UniProt P42227); experiment: cell-based or functional assay
# Stat3 [3] = molecular target: T1, Stat3; set-up: nuclear extracts (prepared from epidermal growth factor (EGF)-stimulated fibroblasts); endogenous in cells; host or cells: NIH3T3 fibroblasts stimulated with EGF; conditions: cited from earlier work
# [4] = test system: Stat1:Stat1 and Stat3:Stat3 dimers; experiment: Dissociation-reassociation analysis of pooled Sf-9 lysates by EMSA; format: biochemical; conditions: 30 min pre-treatment, 30-300 μM PY*LKTK or 3-1000 μM ISS 610, hSIE probe
# Experimental: Cytosolic extract preparation and luciferase assays. Cytosolic extract preparation from fibroblasts and luciferase assays were previously described (Turkson, J. et al. (1998); Turkson, J. et al. (1999)). Briefly, after two washes with PBS and equilibration for 5 min with 0.5 ml PBS-0.5 mM EDTA, cells were scraped off the dishes and the cell pellet was obtained by centrifugation (4,500×g, 2 min, 4° C.). Cells were resuspended in 0.4 ml of low-salt HEPES buffer (10 mM HEPES (pH 7.8), 10 mM KCl, 0.1 mM EGTA, 0.1 mM EDTA, 1 mM phenylmethylsulfonyl fluoride, and 1 mM dithiothreitol) for 15 min, lysed by the addition of 20 μl of 10% Nonidet P-40 (NP-40), and centrifuged (10,000×g, 30 s, 4° C.) to obtain the cytosolic supernatant, which was used for luciferase assays (Promega) measured with a luminometer. Cytosolic lysates containing activated Stat3 or Stat1 that were used for dissociation-reassociation analysis were prepared from baculovirus-infected Sf-9 insect cells as previously described (Turkson, J. et al. (2001); Zhang, Y. et al. (2000)). Briefly, cultured dishes of Sf-9 cells were washed twice with ice-cold 1×PBS and then PBS containing 1 mM sodium orthovanadate.
# NIH3T3/v-Src = experiment: Apo-BrdU labeling and flow cytometry for apoptotic cells; format: cell-based, mouse; conditions: NIH3T3/v-Src, 1 mM, 48 h, Apo-BrdU, flow cytometry
# Experimental: (§3) Cell proliferation, soft-agar growth and Apo-BrdU labeling studies. Proliferating fibroblasts and human tumor cells were counted by phase-contrast microscopy for viable cells (using tyrpan blue exclusion). Colony formation assays in six-well dishes and quantification of colonies by iodonitrotetrazolium violet have been previously described (Turkson, J. et al. (1999)). Treatment of cells with inhibitors was initiated 1 day after seeding cells by adding 75 μl of medium with or without inhibitor, and repeated every two to three days. Apoptosis was measured by Apo-BrdU labeling and following the supplier's (PharMingen; San Diego, Calif.) instructions.
# (§4) Because one of the functions of Stat3 is to protect transformed or tumor cells from apoptosis (Catlett-Falcone, R. et al. (1999b); Epling-Burnette, P. K. et al. (2001); Grandis, J. R. et al. (2000); Bowman, T. et al. (2000b); Bromberg, J. F. et al. (1999)), the ability of peptidomimetics of the invention (and PY*LKTK-MTS for comparison) (SEQ ID NO. 1) to induce apoptosis in Stat3-dependent transformed fibroblasts was evaluated. Viral Src-transformed NIH3T3/v-Src fibroblasts were treated with or without compounds for 48 h. Treated cells were then labeled with Apo-BrdU (PharMingen; San Diego, Calif.) for detection of DNA breaks.
# NIH3T3 = experiment: as above; format: cell-based, mouse; conditions: NIH3T3, 1 mM, 48 h, flow cytometry
# Experimental: as §3, §4
# [5] = nuclear extracts pre-incubated 30 min, hSIE probe, EMSA, mean and SD of at least 3 assays, read-out: IC50, disruption of Stat3 DNA-binding activity
molecule,measurement,setting,value
CC(=O)NC(Cc1ccc(OP(=O)(O)O)cc1)C(=O)NC(CC(C)C)C(=O)O (stereo not drawn) [ISS230] (Ac-[pY]-Leu-OH; configuration not given here),IC50,Stat3 [1],> 1000 µM
CC(C)CC(NC(=O)C(Cc1ccc(OP(=O)(O)O)cc1)NC(=O)C(C)C)C(=O)O (stereo not drawn) [ISS234] (Isobutyryl-[pY]-Leu-OH; configuration not given here),IC50,Stat3 [1],> 1000 µM
CC(C)CC(NC(=O)C(Cc1ccc(OP(=O)(O)O)cc1)NC(=O)c1cccnc1)C(=O)O (stereo not drawn) [ISS 219] (Nicotinoyl-[pY]-Leu-OH; configuration not given here),IC50,Stat3 [1]; [5],232 µM
Cc1ncccc1C(=O)NC(Cc1ccc(OP(=O)(O)O)cc1)C(=O)NC(CC(C)C)C(=O)O (stereo not drawn) [ISS 221],IC50,Stat5:Stat5,50 µM
same,IC50,Stat1:Stat1,310 µM
same,IC50,Stat1:Stat3,455 µM
same,IC50,Stat3 [1]; [5],75 µM
same,effect on Stat3 DNA-binding activity in vitro (in words),Stat3 [1]; EMSA,potent disrupters of active Stat3
Cc1ccc(C(=O)NC(Cc2ccc(OP(=O)(O)O)cc2)C(=O)NC(CC(C)C)C(=O)O)cn1 (stereo not drawn) [ISS 223],IC50,Stat3 [1],225 µM
CC(C)CC(NC(=O)C(Cc1ccc(OP(=O)(O)O)cc1)NC(=O)c1cccc(N)c1)C(=O)O (stereo not drawn) [ISS 248] (H-[3Abz]-[pY]-Leu-OH; configuration not given here),IC50,Stat3 [1],> 1000 µM
CC(C)CC(NC(=O)C(Cc1ccc(OP(=O)(O)O)cc1)NC(=O)c1ccc(N)nc1)C(=O)O (stereo not drawn) [ISS 249],IC50,Stat3 [1],> 1000 µM
CC(C)CC(NC(=O)C(Cc1ccc(OP(=O)(O)O)cc1)NC(=O)c1ccccc1N)C(=O)O (stereo not drawn) [ISS 265] (H-[2Abz]-[pY]-Leu-OH; configuration not given here),IC50,Stat3 [1]; [5],> 1000 µM
CC(C)CC(NC(=O)C(Cc1ccc(OP(=O)(O)O)cc1)NC(=O)c1cccc2ccccc12)C(=O)O (stereo not drawn) [ISS 352],IC50,Stat3 [1],410 µM
CC(C)CC(NC(=O)C(Cc1ccc(OP(=O)(O)O)cc1)NC(=O)c1ccc2ccccc2c1)C(=O)O (stereo not drawn) [ISS 353],IC50,Stat3 [1]; [5],650 µM
CC(C)CC(NC(=O)C(Cc1ccc(OP(=O)(O)O)cc1)NC(=O)c1ccc(-c2ccccc2)cc1)C(=O)O (stereo not drawn) [ISS 355],IC50,Stat3 [1],> 1000 µM
CC(C)CC(NC(=O)C(Cc1ccc(OP(=O)(O)O)cc1)NC(=O)c1ccccc1-c1ccccc1)C(=O)O (stereo not drawn) [ISS 360],IC50,Stat3 [1],420 µM
CC(C)CC(NC(=O)C(Cc1ccc(OP(=O)(O)O)cc1)NC(=O)c1cnc2ccccc2c1)C(=O)O (stereo not drawn) [ISS 363],IC50,Stat3 [1],643 µM
CC(C)CC(NC(=O)C(Cc1ccc(OP(=O)(O)O)cc1)NC(=O)c1cc([N+](=O)[O-])ccc1F)C(=O)O (stereo not drawn) [ISS 375],IC50,Stat3 [1],> 1000 µM
Cc1cnc(C(=O)NC(Cc2ccc(OP(=O)(O)O)cc2)C(=O)NC(CC(C)C)C(=O)O)cn1 (stereo not drawn) [ISS 493],IC50,Stat5:Stat5,300 µM
same,IC50,Stat1:Stat1,273 µM
same,IC50,Stat1:Stat3,230 µM
same,"selectivity among Stat3, Stat1 and Stat5 (in words)",Stat3 [1],preferential suppression of Stat3 activity over those of Stat1 or Stat5
same,IC50,Stat3 [1]; [5],38 µM
COc1cccc(OC)c1C(=O)NC(Cc1ccc(OP(=O)(O)O)cc1)C(=O)NC(CC(C)C)C(=O)O (stereo not drawn) [ISS 637],IC50,Stat5:Stat5,695 µM
same,IC50,Stat1:Stat1,255 µM
same,IC50,Stat1:Stat3,195 µM
same,"selectivity among Stat3, Stat1 and Stat5 (in words)",Stat3 [1],preferential suppression of Stat3 activity over those of Stat1 or Stat5
same,increase in potency in inhibiting Stat3 DNA-binding activity compared to tripeptides PY*L or AY*L,"Stat3 [1]; in vitro, EMSA",5 fold
same,IC50,Stat3 [1]; [5],55 ± 35 µM
same,effect on Stat3 DNA-binding activity in vitro (in words),Stat3 [1]; EMSA,potent disrupters of active Stat3
Alanylphosphotyrosylleucine (peptide),"IC50, concentration at which Stat3 DNA-binding (EMSA, hSIE probe) is reduced by 50%",[2],217 µM
PY*LKTK (P[pY]LKTK) [reference compound],"disruption of Stat3:Stat3 dimer formation and Stat3 DNA-binding activity, as reported earlier",Stat3 [3],disrupt Stat3:Stat3 dimer formation
same,effect on STAT dimers in mixed Stat1:Stat1 and Stat3:Stat3 lysates,[4],appearance of an additional intermediate band representing Stat1:Stat3 heterodimers
PYLKTK-AAVLLPVLLAAP (PYLKTKAAVLLPVLLAAP; membrane translocating sequence; murine) [PYLKTK-MTS],percent of apoptotic cells,NIH3T3/v-Src,0.4%
same,percent of apoptotic cells,NIH3T3,1.2%
Prolylphosphotyrosylleucine (peptide),"IC50, concentration at which Stat3 DNA-binding (EMSA, hSIE probe) is reduced by 50%",[2],182 µM
